This assay has as its system M. mycetomatis genome strain MM55. As to the kind of experiment: CLSI M38-A2 based in vitro susceptibility screening (XTT or resazurin), growth at fixed concentration. It counts as cell-based, Madurella mycetomatis. As to conditions: Madurella mycetomatis; for Percent fungal survival at 100 µM: read-out: Percentage survival at 100um, 100 uM A (second replicate column). In general terms: Tetrazolium assays rely on reduction of a dye to a coloured formazan, in cell work by metabolically active cells.

[1] abbreviates: 25 uM, mean of three replicates, read-out: Percentage survival at 25um, 25 uM mean.
Where [2] appears, read: 25 uM, replicate A, read-out: Percentage survival at 25um, 25 um A.
[3] abbreviates: 25 uM, replicate B, read-out: Percentage survival at 25um, 25 uM B.
The mark [4] stands for this setting: 25 uM, replicate C, read-out: Percentage survival at 25um, 25 uM C.
Where [5] appears, read: first replicate column, read-out: Percentage survival at 100um, 100 uM A.
[6] abbreviates: mean of three replicates, read-out: Percentage survival at 100um, 100 uM mean.
[7] abbreviates: second replicate column, read-out: Percentage survival at 100um, 100 uM A.
Where [8] appears, read: third replicate column, read-out: Percentage survival at 100um, 100 uM A.
Where [9] appears, read: 25 uM, mean, read-out: Percentage survival at 25um, 25 uM mean.
Where [10] appears, read: mean, read-out: Percentage survival at 100um, 100 uM mean.
Where [11] appears, read: replicate (first column), read-out: Percentage survival at 100um, 100 uM A.
Where [12] appears, read: replicate (second column), read-out: Percentage survival at 100um, 100 uM A.
The mark [13] stands for this setting: replicate (third column), read-out: Percentage survival at 100um, 100 uM A.
The mark [14] stands for this setting: mean of replicates, read-out: Percentage survival at 100um, 100 uM mean.
[15] abbreviates: 25 uM, mean of three, M. mycetomatis MM55, read-out: Percentage survival at 25um, 25 uM mean.
The mark [16] stands for this setting: 25 uM, replicate A, M. mycetomatis MM55, read-out: Percentage survival at 25um, 25 um A.
The mark [17] stands for this setting: 25 uM, replicate B, M. mycetomatis MM55, read-out: Percentage survival at 25um, 25 uM B.
Where [18] appears, read: 25 uM, replicate C, M. mycetomatis MM55, read-out: Percentage survival at 25um, 25 uM C.
[19] abbreviates: mean of three, M. mycetomatis MM55, read-out: Percentage survival at 100um, 100 uM mean.
Setting [20] is: replicate 1, M. mycetomatis MM55, read-out: Percentage survival at 100um, 100 uM A (first replicate column).
The mark [21] stands for this setting: replicate 2, M. mycetomatis MM55.
Where [22] appears, read: replicate 3, M. mycetomatis MM55, read-out: Percentage survival at 100um, 100 uM A (third replicate column).

Among the data in PMC8815882, “Screening the pandemic response box identified benzimidazole carbamates, Olorofim and ravuconazole as promising drug candidates for the treatment of eumycetoma” (PLoS Neglected Tropical Diseases, 2022) are activity and Percent fungal survival values, retold here.

Where two headings read alike, the source gives them in different places.

Turning to `CC(=O)N1c2ccccc2NC2=C(C(=O)CC(C)(C)C2)C1c1ccc(OCc2ccccc2)cc1` (stereo not drawn) [MMV1580503], the activity at 25 µM is, setting by setting: under setting [1], 100%; under setting [2], 99.4%; under setting [3], 107%; under setting [4], 94.6%. The activity at 100 µM is, setting by setting: under setting [5], 99.3%; under setting [6], 97.8%; under setting [7], 113%; under setting [8], 80.9%.
Consider `Cc1nc(Nc2ccc(F)cc2)nc(N2CCc3ccccc3C2C)c1C` (stereo not drawn) [MMV030787], for which the activity at 25 µM under setting [9] turned out to be 63.9%, the activity at 25 µM under setting [2] was 74.6%, the activity at 25 µM under setting [3] was 56.2% and the activity at 25 µM under setting [4] was found to be 61.1%. Further, the activity at 100 µM was 67.5% under setting [10], 53.1% under setting [11], 63.5% under setting [12] and 86% under setting [13].
On to `CC#C[C@]1(O)CC[C@H]2[C@@H]3CCC4=CC(=O)CCC4=C3[C@@H](c3ccc(N(C)C)cc3)C[C@@]21C` [MMV003297], for which the activity at 25 µM turned out to be 87.2% under setting [1], 90.2% under setting [2], 94.9% under setting [3] and 76.5% under setting [4]. Moreover, the activity at 100 µM runs as follows: under setting [5], 84.5%; under setting [6], 80.3%; under setting [7], 82.6%; under setting [8], 73.8%.
For `O=C(NC12CC3CC(CC(C3)C1)C2)c1cc2ccccc2[nH]1` [MMV1578577], the activity at 25 µM is 79.8% under setting [2]; 67.1% (read-out: Percentage survival at 25um, 25 uM B); 75.7% (read-out: Percentage survival at 25um, 25 uM C); 74.2% (read-out: Percentage survival at 25um, 25 uM mean). For the same molecule, the activity at 100 µM under setting [14] amounted to 65.6%; the activity at 100 µM (replicate 1, read-out: Percentage survival at 100um, 100 uM A) was determined as 59.6%; the activity at 100 µM (replicate 2, read-out: Percentage survival at 100um, 100 uM A) was determined as 65.1%; the activity at 100 µM (replicate 3, read-out: Percentage survival at 100um, 100 uM A) worked out at 72.1%.
`NC(=O)[C@@H]1CC[C@@H]2CN1C(=O)N2OS(=O)(=O)O` [MMV1613560]: the activity at 25 µM under setting [15] was found to be 88.8%, the activity at 25 µM under setting [16] came out at 94.4%, the activity at 25 µM under setting [17] was 88.3% and the activity at 25 µM under setting [18] was determined as 83.7%. Moreover, the activity at 100 µM is, setting by setting: under setting [19], 85.1%; under setting [20], 93.4%; under setting [22], 94.1%. Also, under setting [21], the Percent fungal survival at 100 µM came out at 67.9%.
In the case of `O=C(CCCC(F)(F)F)N1CCC(c2nc(-c3nccs3)no2)CC1` [MMV1582491], the activity at 25 µM reads like this: under setting [15], 73.3%; under setting [16], 68.8%; under setting [17], 80.7%; under setting [18], 70.4%. The activity at 100 µM is, setting by setting: under setting [19], 72.9%; under setting [20], 57%; under setting [22], 94.8%. Moreover, the Percent fungal survival at 100 µM under setting [21] worked out at 67%.
As for `NCCCc1ccccc1C(=O)Nc1ncc([N+](=O)O)s1` [MMV1579786], the activity at 25 µM under setting [15] was 82.7%, the activity at 25 µM under setting [16] amounted to 85.5%, the activity at 25 µM under setting [17] turned out to be 82.6% and the activity at 25 µM under setting [18] turned out to be 80.1%. The activity at 100 µM is, setting by setting: under setting [19], 76.6%; under setting [20], 71.4%; under setting [22], 75.1%. Besides, the Percent fungal survival at 100 µM under setting [21] was 83.2%.
With `O=C1C=C(c2ccccc2)S(=O)(=O)c2ccccc21` [MMV1006203], the activity at 25 µM reads like this: (25 uM, mean of replicates, read-out: Percentage survival at 25um, 25 uM mean) 65%; under setting [2], 59.6%; under setting [3], 126%; under setting [4], 9.78%. The activity at 100 µM reads like this: under setting [14], 26.1%; (replicate 1, read-out: Percentage survival at 100um, 100 uM A (first replicate column)) 63.3%; (replicate 3, read-out: Percentage survival at 100um, 100 uM A (third replicate column)) 10.9%. The Percent fungal survival at 100 µM (replicate 2) was found to be 4.04%.
`CC(C)c1ccc(COc2cccc(-c3cc([S+](C)[O-])c(C#N)c(=O)[nH]3)c2)cc1` (stereo not drawn) [MMV1582497]: the activity at 25 µM is, setting by setting: under setting [9], 61.3%; under setting [2], 65%; under setting [3], 60.9%; under setting [4], 58.1%. Further, the activity at 100 µM was 40.1% under setting [10], 1.56% under setting [11], 53.5% under setting [12] and 65.4% under setting [13].
